Experiments:
Type in all cases: in vivo
Triticum aestivum [1] = assay: Preemergence herbicidal activity (Example 67); parameters: herbicide rating, TRZAW: scale not given here; conditions: pre, 800 g/ha
In short: (§1)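 Visual injury ratings are taken about 1-3 weeks after the soil surface of treated cups is sprayed. The spray delivers 800g/ha in a volume equivalent to 400 L/ha from an acetone/surfactant solution diluted with water.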

Hordeum vulgare [2] = assay: Preemergence herbicidal activity (Example 67); parameters: herbicide rating, HORVW: scale not given here; conditions: pre, 800 g/ha
In short: as §1

Alopecurus myosuroides [3] = assay: Preemergence herbicidal activity (Example 67); parameters: herbicide rating, ALOMY: scale not given here; conditions: pre, 800 g/ha
In short: as §1

Setaria viridis [4] = assay: Preemergence herbicidal activity (Example 67); parameters: herbicide rating, SETVI: scale not given here; conditions: pre, 800 g/ha
In short: as §1

Abutilon theophrasti [5] = assay: Preemergence herbicidal activity (Example 67); conditions: pre, 800 g/ha
In short: as §1

Amaranthus retroflexus [6] = assay: Preemergence herbicidal activity (Example 67); conditions: pre, 800 g/ha
In short: as §1

Chenopodium album [7] = assay: Preemergence herbicidal activity (Example 67); conditions: pre, 800 g/ha
In short: as §1

Galium aparine [8] = assay: Preemergence herbicidal activity (Example 67); conditions: pre, 800 g/ha
In short: as §1

Helianthus annuus [9] = assay: Preemergence herbicidal activity (Example 67); conditions: pre, 800 g/ha
In short: as §1

Ipomoea hederacea [10] = assay: Preemergence herbicidal activity (Example 67); conditions: pre, 800 g/ha
In short: as §1

Veronica persica [11] = assay: Preemergence herbicidal activity (Example 67); conditions: pre, 800 g/ha
In short: as §1

Zea mays [12] = assay: Preemergence herbicidal activity (Example 67); conditions: pre, 800 g/ha
In short: as §1

Abutilon theophrasti [13] = assay: Postemergence herbicidal activity (Example 67); conditions: pos, 800 g/ha
In short: (§2)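 Damage scores are visual ratings taken 10-21 days after a single spray of 800g/ha applied to 3-6 week old seedlings. Compound was formulated in acetone containing 0.5% TRITON X-155 and diluted with water.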

Alopecurus myosuroides [14] = assay: Postemergence herbicidal activity (Example 67); conditions: pos, 800 g/ha
In short: as §2

Amaranthus retroflexus [15] = assay: Postemergence herbicidal activity (Example 67); conditions: pos, 800 g/ha
In short: as §2

Chenopodium album [16] = assay: Postemergence herbicidal activity (Example 67); conditions: pos, 800 g/ha
In short: as §2

Galium aparine [17] = assay: Postemergence herbicidal activity (Example 67); conditions: pos, 800 g/ha
In short: as §2

Helianthus annuus [18] = assay: Postemergence herbicidal activity (Example 67); conditions: pos, 800 g/ha
In short: as §2

Hordeum vulgare [19] = assay: Postemergence herbicidal activity (Example 67); conditions: pos, 800 g/ha
In short: as §2

Ipomoea hederacea [20] = assay: Postemergence herbicidal activity (Example 67); conditions: pos, 800 g/ha
In short: as §2

Setaria viridis [21] = assay: Postemergence herbicidal activity (Example 67); conditions: pos, 800 g/ha
In short: as §2

Triticum aestivum [22] = assay: Postemergence herbicidal activity (Example 67); conditions: pos, 800 g/ha
In short: as §2

Veronica persica [23] = assay: Postemergence herbicidal activity (Example 67); conditions: pos, 800 g/ha
In short: as §2

Zea mays [24] = assay: Postemergence herbicidal activity (Example 67); conditions: pos, 800 g/ha
In short: as §2

[25] = rated about 1-3 weeks after treatment

CC(NC(=O)c1nc(-c2cccc(Cl)n2)ns1)c1cccs1 (racemic) [Example 47]
TRZ AW rating (Triticum aestivum [1]): 0
HOR VW rating (Hordeum vulgare [2]): 0
ALO MY rating (Alopecurus myosuroides [3]): 0
SET VI rating (Setaria viridis [4]): 3 (16-29%)
ABU TH rating (Abutilon theophrasti [5]): 2 (6-15%)
AMA RE rating (Amaranthus retroflexus [6]): 0
CHE AL rating (Chenopodium album [7]): 0
GAL AP rating (Galium aparine [8]): 1 (1-5%)
HEL AN rating (Helianthus annuus [9]): 0
IPO HE rating (Ipomoea hederacea [10]): 1 (1-5%)
VER PE rating (Veronica persica [11]): 0
ZEA MX rating (Zea mays [12]): 0
ABU TH rating (Abutilon theophrasti [13]): 4 (30-44%)
ALO MY rating (Alopecurus myosuroides [14]): 4 (30-44%)
AMA RE rating (Amaranthus retroflexus [15]): 1 (1-5%)
CHE AL rating (Chenopodium album [16]): 4 (30-44%)
GAL AP rating (Galium aparine [17]): 4 (30-44%)
HEL AN rating (Helianthus annuus [18]): 5 (45-64%)
HOR VW rating (Hordeum vulgare [19]): 3 (16-29%)
IPO HE rating (Ipomoea hederacea [20]): 4 (30-44%)
SET VI rating (Setaria viridis [21]): 6 (65-79%)
TRZ AW rating (Triticum aestivum [22]): 1 (1-5%)
VER PE rating (Veronica persica [23]): 3 (16-29%)
ZEA MX rating (Zea mays [24]): 4 (30-44%)

COc1ccc(-c2nc(C(=O)NC(C)c3cccs3)ns2)cc1 (racemic) [Example 51, (R/S)-5-(4-Methoxyphenyl)-[1,2,4]thiadiazole-3-carboxylic acid, [1-(2-thienyl)ethyl]amide]
TRZ AW rating (Triticum aestivum [1]): 2 (6-15%)
HOR VW rating (Hordeum vulgare [2]): 2 (6-15%)
ALO MY rating (Alopecurus myosuroides [3]): 3 (16-29%)
SET VI rating (Setaria viridis [4]): 0
ABU TH rating (Abutilon theophrasti [5]): 3 (16-29%)
AMA RE rating (Amaranthus retroflexus [6]): 5 (45-64%)
CHE AL rating (Chenopodium album [7]): 0
GAL AP rating (Galium aparine [8]): 0
HEL AN rating (Helianthus annuus [9]): 1 (1-5%)
IPO HE rating (Ipomoea hederacea [10]): 0
VER PE rating (Veronica persica [11]): 0
ZEA MX rating (Zea mays [12]): 0
ABU TH rating (Abutilon theophrasti [13]): 6 (65-79%)
ALO MY rating (Alopecurus myosuroides [14]): 5 (45-64%)
AMA RE rating (Amaranthus retroflexus [15]): 4 (30-44%)
CHE AL rating (Chenopodium album [16]): 4 (30-44%)
GAL AP rating (Galium aparine [17]): 6 (65-79%)
HEL AN rating (Helianthus annuus [18]): 8 (91-99%)
HOR VW rating (Hordeum vulgare [19]): 5 (45-64%)
IPO HE rating (Ipomoea hederacea [20]): 8 (91-99%)
SET VI rating (Setaria viridis [21]): 8 (91-99%)
TRZ AW rating (Triticum aestivum [22]): 3 (16-29%)
VER PE rating (Veronica persica [23]): 8 (91-99%)
ZEA MX rating (Zea mays [24]): 5 (45-64%)

O=C(NC1CCCc2ccccc21)c1nc(-c2ccccc2F)ns1 (racemic) [Example 53]
TRZ AW rating (Triticum aestivum [1]): 1 (1-5%)
HOR VW rating (Hordeum vulgare [2]): 0
ALO MY rating (Alopecurus myosuroides [3]): 0
SET VI rating (Setaria viridis [4]): 0
ABU TH rating (Abutilon theophrasti [5]): 0
AMA RE rating (Amaranthus retroflexus [6]): 3 (16-29%)
CHE AL rating (Chenopodium album [7]): 0
GAL AP rating (Galium aparine [8]): 0
HEL AN rating (Helianthus annuus [9]): 0
IPO HE rating (Ipomoea hederacea [10]): 0
VER PE rating (Veronica persica [11]): 6 (65-79%)
ZEA MX rating (Zea mays [12]): 0
ABU TH rating (Abutilon theophrasti [13]): 0
ALO MY rating (Alopecurus myosuroides [14]): 1 (1-5%)
AMA RE rating (Amaranthus retroflexus [15]): 0
CHE AL rating (Chenopodium album [16]): 0
GAL AP rating (Galium aparine [17]): 2 (6-15%)
HEL AN rating (Helianthus annuus [18]): 0
HOR VW rating (Hordeum vulgare [19]): 2 (6-15%)
IPO HE rating (Ipomoea hederacea [20]): 2 (6-15%)
SET VI rating (Setaria viridis [21]): 5 (45-64%)
TRZ AW rating (Triticum aestivum [22]): 2 (6-15%)
VER PE rating (Veronica persica [23]): 0
ZEA MX rating (Zea mays [24]): 0

COc1ccc(-c2nsc(C(=O)NC3CCCc4ccccc43)n2)cc1 (racemic) [Example 54]
TRZ AW rating (Triticum aestivum [1]): 0
HOR VW rating (Hordeum vulgare [2]): 0
ALO MY rating (Alopecurus myosuroides [3]): 0
SET VI rating (Setaria viridis [4]): 0
ABU TH rating (Abutilon theophrasti [5]): 0
AMA RE rating (Amaranthus retroflexus [6]): 0
CHE AL rating (Chenopodium album [7]): 0
GAL AP rating (Galium aparine [8]): 0
HEL AN rating (Helianthus annuus [9]): 0
IPO HE rating (Ipomoea hederacea [10]): 0
VER PE rating (Veronica persica [11]): 0
ZEA MX rating (Zea mays [12]): 0
ABU TH rating (Abutilon theophrasti [13]): 2 (6-15%)
ALO MY rating (Alopecurus myosuroides [14]): 2 (6-15%)
AMA RE rating (Amaranthus retroflexus [15]): 0
CHE AL rating (Chenopodium album [16]): 2 (6-15%)
GAL AP rating (Galium aparine [17]): 3 (16-29%)
HEL AN rating (Helianthus annuus [18]): 4 (30-44%)
HOR VW rating (Hordeum vulgare [19]): 3 (16-29%)
IPO HE rating (Ipomoea hederacea [20]): 2 (6-15%)
SET VI rating (Setaria viridis [21]): 3 (16-29%)
TRZ AW rating (Triticum aestivum [22]): 1 (1-5%)
VER PE rating (Veronica persica [23]): 0
ZEA MX rating (Zea mays [24]): 4 (30-44%)

CC(NC(=O)c1nsc(-c2ccccc2F)n1)c1cccs1 (racemic) [Example 57, (R/S)-5-(2-Fluorophenyl)-[1,2,4]thiadiazole-3-carboxylic acid, [1-(2-thienyl)ethyl]amide]
TRZ AW rating (Triticum aestivum [1]): 2 (6-15%)
HOR VW rating (Hordeum vulgare [2]): 0
ALO MY rating (Alopecurus myosuroides [3]): 3 (16-29%)
SET VI rating (Setaria viridis [4]): 2 (6-15%)
ABU TH rating (Abutilon theophrasti [5]): 0
AMA RE rating (Amaranthus retroflexus [6]): 4 (30-44%)
CHE AL rating (Chenopodium album [7]): 1 (1-5%)
GAL AP rating (Galium aparine [8]): 0
HEL AN rating (Helianthus annuus [9]): 0
IPO HE rating (Ipomoea hederacea [10]): 0
VER PE rating (Veronica persica [11]): 0
ZEA MX rating (Zea mays [12]): 0
ABU TH rating (Abutilon theophrasti [13]): 9 (100% effect)
ALO MY rating (Alopecurus myosuroides [14]): 4 (30-44%)
AMA RE rating (Amaranthus retroflexus [15]): 7 (80-90%)
CHE AL rating (Chenopodium album [16]): 4 (30-44%)
GAL AP rating (Galium aparine [17]): 7 (80-90%)
HEL AN rating (Helianthus annuus [18]): 8 (91-99%)
HOR VW rating (Hordeum vulgare [19]): 4 (30-44%)
IPO HE rating (Ipomoea hederacea [20]): 7 (80-90%)
SET VI rating (Setaria viridis [21]): 9 (100% effect)
TRZ AW rating (Triticum aestivum [22]): 3 (16-29%)
VER PE rating (Veronica persica [23]): 6 (65-79%)
ZEA MX rating (Zea mays [24]): 5 (45-64%)

COc1ccc(-c2nsc(C(=O)N[C@@H](C)c3ccccc3)n2)cc1 [Example 2, (S)-3-(4-Methoxyphenyl)-[1,2,4]thiadiazole-5-carboxylic acid (1-phenylethyl)amide]
herbicide rating, TRZAW (Triticum aestivum [1]; [25]): 0
herbicide rating, HORVW (Hordeum vulgare [2]; [25]): 0
herbicide rating, ALOMY (Alopecurus myosuroides [3]; [25]): 0
herbicide rating, SETVI (Setaria viridis [4]; [25]): 0
herbicide rating, ABUTH (Abutilon theophrasti [5]; [25]): 0
herbicide rating, AMARE (Amaranthus retroflexus [6]; [25]): 0
herbicide rating, CHEAL (Chenopodium album [7]; [25]): 0
herbicide rating, GALAP (Galium aparine [8]; [25]): 0
herbicide rating, HELAN (Helianthus annuus [9]; [25]): 0
herbicide rating, IPOHE (Ipomoea hederacea [10]; [25]): 5 (45-64%)
herbicide rating, VERPE (Veronica persica [11]; [25]): 0
herbicide rating, ZEAMX (Zea mays [12]; [25]): 0
herbicide rating, ABUTH (Abutilon theophrasti [13]; rated after 10-21 days): 1 (1-5%)
herbicide rating, ALOMY (Alopecurus myosuroides [14]; rated after 10-21 days): 2 (6-15%)
herbicide rating, AMARE (Amaranthus retroflexus [15]; rated after 10-21 days): 0
herbicide rating, CHEAL (Chenopodium album [16]; rated after 10-21 days): 3 (16-29%)
herbicide rating, GALAP (Galium aparine [17]; rated after 10-21 days): 0
herbicide rating, HELAN (Helianthus annuus [18]; rated after 10-21 days): 1 (1-5%)
herbicide rating, HORVW (Hordeum vulgare [19]; rated after 10-21 days): 2 (6-15%)
herbicide rating, IPOHE (Ipomoea hederacea [20]; rated after 10-21 days): 2 (6-15%)
herbicide rating, SETVI (Setaria viridis [21]; rated after 10-21 days): 5 (45-64%)
herbicide rating, TRZAW (Triticum aestivum [22]; rated after 10-21 days): 2 (6-15%)
herbicide rating, VERPE (Veronica persica [23]; rated after 10-21 days): 0
herbicide rating, ZEAMX (Zea mays [24]; rated after 10-21 days): 1 (1-5%)
